US11236084B2, “Substituted azaindoline derivatives as NIK inhibitors” (Janssen Pharmaceutica NV, priority 2017, dated 2022)
Like-named read-outs stand apart in the source and are kept apart here.

Biological target: recombinant human NF-kappaB-inducing kinase (NIK/MAP3K14) (Homo sapiens, UniProt Q99558)
Assay: Biological Assay B: inhibition of auto-phosphorylation of recombinant human NIK/MAP3K14 (AlphaScreen), performed at 2 locations
Assay type: biochemical
Conditions: AlphaScreen auto-phosphorylation, averaged values
Procedure: Inhibition of Auto-Phosphorylation of Recombinant Human NF-kappaB-Inducing Kinase (NIK/MAP3K14) Activity (AlphaScreen®)
NIK/MAP3K14 auto-phosphorylation activity was measured using the AlphaScreen® (αscreen) format (Perkin Elmer). All compounds tested were dissolved in dimethyl sulfoxide (DMSO) and further dilutions were made in assay buffer. Final DMSO concentration was 1% (v/v) in assays. Assay buffer was 50 mM Tris pH 7.5 containing 1 mM EGTA (ethylene glycol tetraacetic acid), 1 mM DTT (dithiothreitol), 0.1 mM Na3VO4, 5 mM MgCl2, 0.01% Tween® 20. Assays were carried out in 384 well Alphaplates (Perkin Elmer). Incubations consisted of compound, 25 microM Adenosine-5′-triphosphate (ATP), and 0.2 nM NIK/MAP3K14. Incubations were initiated by addition of GST-tagged NIK/MAP3K14 enzyme, carried out for 1 h at 25° C. and terminated by addition of stop buffer containing anti-phospho-IKK Ser176/180 antibody. Protein A Acceptor and Glutathione-Donor beads were added before reading using an EnVision® Multilabel Plate Reader (Perkin Elmer). Signal obtained in the wells containing blank samples was subtracted from all other wells and IC50's were determined by fitting a sigmoidal curve to % inhibition of control versus Log10 compound concentration.
Assay B was performed at 2 different locations.
Data for the compounds of the invention in the above assays are provided in Table A (the values in Table are averaged values over all measurements on all batches of a compound; values as IC50 (nM)). (‘n.c.’ means not calculated: ‘Co.’ means compound)

[1] = location 2, read-out: Assay B location 2 IC50
[2] = location 1, read-out: Assay B location 1 IC50

Sequence of recombinant human NF-kappaB-inducing kinase (NIK/MAP3K14) (Q99558 whole entry): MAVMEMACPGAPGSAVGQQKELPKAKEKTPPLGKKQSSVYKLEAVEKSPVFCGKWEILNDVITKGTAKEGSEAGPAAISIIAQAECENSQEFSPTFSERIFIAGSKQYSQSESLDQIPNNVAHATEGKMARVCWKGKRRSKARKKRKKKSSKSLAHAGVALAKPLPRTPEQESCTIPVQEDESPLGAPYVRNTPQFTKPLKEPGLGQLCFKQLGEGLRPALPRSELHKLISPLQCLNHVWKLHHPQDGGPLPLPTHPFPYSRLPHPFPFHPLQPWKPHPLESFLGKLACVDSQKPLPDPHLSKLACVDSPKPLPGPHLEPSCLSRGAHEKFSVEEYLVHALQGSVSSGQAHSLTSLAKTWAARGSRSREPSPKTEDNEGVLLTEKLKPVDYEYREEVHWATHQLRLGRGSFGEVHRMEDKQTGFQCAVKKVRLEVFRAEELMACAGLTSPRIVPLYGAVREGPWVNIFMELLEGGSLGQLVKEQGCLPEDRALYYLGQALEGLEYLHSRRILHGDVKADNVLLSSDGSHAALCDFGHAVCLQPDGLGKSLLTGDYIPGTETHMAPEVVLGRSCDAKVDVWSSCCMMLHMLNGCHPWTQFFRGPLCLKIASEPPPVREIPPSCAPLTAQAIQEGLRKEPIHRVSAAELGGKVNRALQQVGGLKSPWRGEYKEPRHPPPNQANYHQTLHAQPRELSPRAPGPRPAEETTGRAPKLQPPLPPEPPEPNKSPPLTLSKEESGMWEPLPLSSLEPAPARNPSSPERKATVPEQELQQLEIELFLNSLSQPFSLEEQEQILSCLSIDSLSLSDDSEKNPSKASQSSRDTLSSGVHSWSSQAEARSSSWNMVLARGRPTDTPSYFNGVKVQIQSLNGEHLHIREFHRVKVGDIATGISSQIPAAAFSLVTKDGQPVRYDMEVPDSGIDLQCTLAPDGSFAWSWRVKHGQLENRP

| Structure (SMILES) | IC50 [1] | IC50 [2] |
| --- | --- | --- |
| CCC1(CCO)CNc2ncc(-c3ccnc(Nc4ccc(C(=O)NC5CCOCC5)cc4OC)n3)cc21 (stereo not shown) [Compound 158] | 15.1 nM |  |
| COc1cc(C(=O)NC(C)(C)CO)ccc1Nc1nccc(-c2cnc3c(c2)C(C)(CO)CN3)n1 (stereo not shown) [Compound 160] | 18.6 nM |  |
| COc1cc(-c2ncc[nH]2)ccc1Nc1nccc(-c2cnc3c(c2)C(C)(CO)CN3)n1 (stereo not shown) [Compound 163] | 12 nM |  |
| COc1ccc(Nc2nccc(-c3cnc4c(c3)C(C)(CO)CN4)n2)c(OC)c1 (stereo not shown) [Compound 164] | 5.6 nM |  |
| COc1cc(CN2CCOCC2)ccc1Nc1nccc(-c2cnc3c(c2)C(C)(CO)CN3)n1 (stereo not shown) [Compound 165] | 23.4 nM |  |
| COCc1ccc(Nc2nccc(-c3cnc4c(c3)C(C)(CO)CN4)n2)c(OC)c1 (stereo not shown) [Compound 166] | 18.2 nM |  |
| COc1ccc(C(F)(F)F)cc1Nc1nccc(-c2cnc3c(c2)C(C)(CO)CN3)n1 (stereo not shown) [Compound 173] | 10 nM |  |
| CCOc1ccccc1Nc1nccc(-c2cnc3c(c2)C(C)(CO)CN3)n1 (stereo not shown) [Compound 174] | 32.4 nM |  |
| CC1(CO)CNc2ncc(-c3ccnc(Nc4ccccc4Br)n3)cc21 (stereo not shown) [Compound 176] | 12.6 nM |  |
| CC1(CO)CNc2ncc(-c3ccnc(Nc4ccccc4F)n3)cc21 (stereo not shown) [Compound 177] | 32.4 nM |  |
| CC1(CO)CNc2ncc(-c3ccnc(Nc4ccccc4Cl)n3)cc21 (stereo not shown) [Compound 178] | 14.1 nM |  |
| Cc1ccccc1Nc1nccc(-c2cnc3c(c2)C(C)(CO)CN3)n1 (stereo not shown) [Compound 179] | 22.4 nM |  |
| COc1ccc(Br)cc1Nc1nccc(-c2cnc3c(c2)C(C)(CO)CN3)n1 (stereo not shown) [Compound 181] | 2.2 nM |  |
| COc1ccc(C)cc1Nc1nccc(-c2cnc3c(c2)C(C)(CO)CN3)n1 (stereo not shown) [Compound 184] | 3.4 nM |  |
| COc1cc(CN(C)C)ccc1Nc1nccc(-c2cnc3c(c2)C(C)(CO)CN3)n1 (stereo not shown) [Compound 186] | 40.7 nM |  |
| COc1cc(Nc2nccc(-c3cnc4c(c3)C(C)(CO)CN4)n2)ccc1-c1cnn(C)c1 (stereo not shown) [Compound 188] | 5.5 nM |  |
| COc1cc(Cn2cccn2)ccc1Nc1nccc(-c2cnc3c(c2)C(C)(CO)CN3)n1 (stereo not shown) [Compound 189] | 6.9 nM |  |
| COc1ccc(C#N)cc1Nc1nccc(-c2cnc3c(c2)C(C)(CO)CN3)n1 (stereo not shown) [Compound 190] | 2.2 nM |  |
| COc1cc(-n2cccn2)ccc1Nc1nccc(-c2cnc3c(c2)C(C)(CO)CN3)n1 (stereo not shown) [Compound 191] | ~27 nM |  |
| COc1cc(-c2ccn(C)n2)ccc1Nc1nccc(-c2cnc3c(c2)C(C)(CO)CN3)n1 (stereo not shown) [Compound 192] | 26.9 nM |  |

| Structure (SMILES) | IC50 [1] | IC50 [2] |
| --- | --- | --- |
| COc1cc(Nc2nccc(-c3cnc4c(c3)C(C)(CO)CN4)n2)cc(C(F)(F)F)c1 (stereo not shown) [Compound 193] | 22.9 nM |  |
| COc1cc(CCN2CCOCC2)ccc1Nc1nccc(-c2cnc3c(c2)C(C)(CO)CN3)n1 (stereo not shown) [Compound 194] | 21.9 nM |  |
| Cc1ccc(Cl)cc1Nc1nccc(-c2cnc3c(c2)C(C)(CO)CN3)n1 (stereo not shown) [Compound 199] | 4.5 nM |  |
| COc1cc(C2COCCN2C)ccc1Nc1nccc(-c2cnc3c(c2)C(C)(CO)CN3)n1 (stereo not shown) [Compound 200] | 132 nM |  |
| COc1cc(-n2cnc(C)c2)ccc1Nc1nccc(-c2cnc3c(c2)C(C)(CO)CN3)n1 (stereo not shown) [Compound 202] | 26.9 nM |  |
| COc1cc(-c2ccnn2C)ccc1Nc1nccc(-c2cnc3c(c2)C(C)(CO)CN3)n1 (stereo not shown) [Compound 203] | 30.9 nM |  |
| CC1(CO)CNc2ncc(-c3ccnc(Nc4cc(C#N)ccc4Cl)n3)cc21 (stereo not shown) [Compound 205] | 5.1 nM |  |
| COc1cc(-n2cncn2)ccc1Nc1nccc(-c2cnc3c(c2)C(C)(CO)CN3)n1 (stereo not shown) [Compound 207] | 16.6 nM |  |
| COc1ccc(C(C)C)cc1Nc1nccc(-c2cnc3c(c2)C(C)(CO)CN3)n1 (stereo not shown) [Compound 209] | 110 nM |  |
| Cc1ccc(OC(F)(F)F)cc1Nc1nccc(-c2cnc3c(c2)C(C)(CO)CN3)n1 (stereo not shown) [Compound 210] | 30.9 nM |  |
| COc1cc(N2CCC(OC)CC2)ccc1Nc1nccc(-c2cnc3c(c2)C(C)(CO)CN3)n1 (stereo not shown) [Compound 213] | 13.8 nM |  |
| COc1cc(N2CCC(C#N)CC2)ccc1Nc1nccc(-c2cnc3c(c2)C(C)(CO)CN3)n1 (stereo not shown) [Compound 215] | 12.9 nM |  |
| Cc1cc(N2CCOCC2)ccc1Nc1nccc(-c2cnc3c(c2)C(C)(CO)CN3)n1 (stereo not shown) [Compound 216] | 47.9 nM |  |
| CNC(=O)c1ccc(C)c(Nc2nccc(-c3cnc4c(c3)C(C)(CO)CN4)n2)c1 (stereo not shown) [Compound 219] | 61.7 nM |  |
| COc1ccc(NC(C)=O)cc1Nc1nccc(-c2cnc3c(c2)C(C)(CO)CN3)n1 (stereo not shown) [Compound 221] | 10.5 nM |  |
| Cc1c(C#N)cccc1Nc1nccc(-c2cnc3c(c2)C(C)(CO)CN3)n1 (stereo not shown) [Compound 223] | 63.1 nM |  |
| Cc1c(Cl)cccc1Nc1nccc(-c2cnc3c(c2)C(C)(CO)CN3)n1 (stereo not shown) [Compound 224] | 38 nM |  |
| CC1(CO)CNc2ncc(-c3ccnc(Nc4cccc(Cl)c4Cl)n3)cc21 (stereo not shown) [Compound 227] | 41.7 nM | 72.4 nM |
| COc1cc(Cl)c(C)c(Nc2nccc(-c3cnc4c(c3)C(C)(CO)CN4)n2)c1 (stereo not shown) [Compound 230] | 6.6 nM | 7.4 nM |
| CCN1CCC(Oc2ccc(Nc3nccc(-c4cnc5c(c4)C(C)(CO)CN5)n3)c(OC)c2)C1 (stereo not shown) [Compound 233] | 33.1 nM | 32.4 nM |

Further molecules by falling IC50 [1], results first:

| IC50 [1] | IC50 [2] | Structure (SMILES) |
| --- | --- | --- |
| 204 nM |  | CC1(CO)CNc2ncc(-c3ccnc(Nc4ccccc4C(F)(F)F)n3)cc21 (stereo not shown) [Compound 180] |
| 71.6 nM | 75.9 nM | COc1cc(Cl)ccc1Nc1nccc(-c2cnc3c(c2)C(C)(CO)CN3)n1 (stereo not shown) [Compound 172] |
| 49 nM |  | COc1ccc(C2CC2)cc1Nc1nccc(-c2cnc3c(c2)C(C)(CO)CN3)n1 (stereo not shown) [Compound 195] |
| 49 nM |  | CC(=O)Nc1ccc(C)c(Nc2nccc(-c3cnc4c(c3)C(C)(CO)CN4)n2)c1 (stereo not shown) [Compound 211] |
| 38 nM |  | CCc1ccc(OC)c(Nc2nccc(-c3cnc4c(c3)C(C)(CO)CN4)n2)c1 (stereo not shown) [Compound 206] |
| 37.2 nM | 45.7 nM | COc1cc(OC2CCN(C)C2)ccc1Nc1nccc(-c2cnc3c(c2)C(C)(CO)CN3)n1 (stereo not shown) [Compound 229] |
| 33.9 nM |  | CC(C)Oc1ccccc1Nc1nccc(-c2cnc3c(c2)C(C)(CO)CN3)n1 (stereo not shown) [Compound 175] |
| 27.6 nM | 45.7 nM | COc1cc(-c2cncn2C)ccc1Nc1nccc(-c2cnc3c(c2)C(C)(CO)CN3)n1 (stereo not shown) [Compound 170] |
| 27.5 nM |  | COc1cc(N2CCC(F)(F)CC2)ccc1Nc1nccc(-c2cnc3c(c2)C(C)(CO)CN3)n1 (stereo not shown) [Compound 217] |
| 26.3 nM |  | COc1cc(OC2CCN(C)CC2)ccc1Nc1nccc(-c2cnc3c(c2)C(C)(CO)CN3)n1 (stereo not shown) [Compound 228] |
| 22.4 nM |  | Cc1cccc(Nc2nccc(-c3cnc4c(c3)C(C)(CO)CN4)n2)c1C (stereo not shown) [Compound 212] |
| 19.1 nM |  | CCc1ccccc1Nc1nccc(-c2cnc3c(c2)C(C)(CO)CN3)n1 (stereo not shown) [Compound 167] |
| 18.2 nM |  | COc1cc(N2CCN(C)CC2)ccc1Nc1nccc(-c2cnc3c(c2)C(C)(CO)CN3)n1 (stereo not shown) [Compound 187] |
| 15.1 nM |  | COc1cc(OCCN2CCOCC2)ccc1Nc1nccc(-c2cnc3c(c2)C(C)(CO)CN3)n1 (stereo not shown) [Compound 218] |
| 12.6 nM |  | CCC1(CCO)CNc2ncc(-c3ccnc(Nc4ccc(C(=O)N5CCC(OC)CC5)cc4OC)n3)cc21 (stereo not shown) [Compound 159] |
| 12.3 nM |  | COc1cc(N2CCOCC2)ccc1Nc1nccc(-c2cnc3c(c2)C(C)(CO)CN3)n1 (stereo not shown) [Compound 171] |

| IC50 [1] | IC50 [2] | Structure (SMILES) |
| --- | --- | --- |
| 12 nM |  | COc1cccc(Nc2nccc(-c3cnc4c(c3)C(C)(CO)CN4)n2)c1C (stereo not shown) [Compound 214] |
| 11.2 nM |  | CC1(CO)CNc2ncc(-c3ccnc(Nc4cc(F)ccc4Cl)n3)cc21 (stereo not shown) [Compound 197] |
| 10.7 nM |  | COc1ccc(CO)cc1Nc1nccc(-c2cnc3c(c2)C(C)(CO)CN3)n1 (stereo not shown) [Compound 204] |
| 10.2 nM | 13.2 nM | COc1cccc(Nc2nccc(-c3cnc4c(c3)C(C)(CO)CN4)n2)c1Cl (stereo not shown) [Compound 225] |
| 8.9 nM |  | COc1cc(-c2cnn(C)c2)ccc1Nc1nccc(-c2cnc3c(c2)C(C)(CO)CN3)n1 (stereo not shown) [Compound 169] |
| 8.5 nM |  | Cc1ccc(F)cc1Nc1nccc(-c2cnc3c(c2)C(C)(CO)CN3)n1 (stereo not shown) [Compound 198] |
| 5 nM |  | Cc1ccc(C#N)cc1Nc1nccc(-c2cnc3c(c2)C(C)(CO)CN3)n1 (stereo not shown) [Compound 208] |
| 4.1 nM | 7.4 nM | COc1cc(C#N)c(C)c(Nc2nccc(-c3cnc4c(c3)C(C)(CO)CN4)n2)c1 (stereo not shown) [Compound 226] |
| 4 nM |  | CC1(CO)CNc2ncc(-c3ccnc(Nc4cc(Cl)ccc4Cl)n3)cc21 (stereo not shown) [Compound 196] |
| 3.8 nM |  | COc1cc(CCO)ccc1Nc1nccc(-c2cnc3c(c2)C(C)(CO)CN3)n1 (stereo not shown) [Compound 185] |
| 3.6 nM |  | COc1cccc(Nc2nccc(-c3cnc4c(c3)C(C)(CO)CN4)n2)c1 (stereo not shown) [Compound 168] |
| 3 nM |  | COc1ccc(F)cc1Nc1nccc(-c2cnc3c(c2)C(C)(CO)CN3)n1 (stereo not shown) [Compound 182] |
| 2.6 nM |  | COc1ccc(Cl)c(Nc2nccc(-c3cnc4c(c3)C(C)(CO)CN4)n2)c1 (stereo not shown) [Compound 222] |
| 2.5 nM |  | COc1ccc(C)c(Nc2nccc(-c3cnc4c(c3)C(C)(CO)CN4)n2)c1 (stereo not shown) [Compound 220] |
| 1.4 nM |  | COc1ccc(Cl)cc1Nc1nccc(-c2cnc3c(c2)C(C)(CO)CN3)n1 (stereo not shown) [Compound 183] |
